The results in this text go back to paper PMC8213057, “Targeting ALK2: An Open Science Approach to Developing Therapeutics for the Treatment of Diffuse Intrinsic Pontine Glioma” (Journal of Medicinal Chemistry, 2020).

The target of one test is T1, ULK1 (Homo sapiens, UniProt O75385).
T1 sequence (O75385 1-1050): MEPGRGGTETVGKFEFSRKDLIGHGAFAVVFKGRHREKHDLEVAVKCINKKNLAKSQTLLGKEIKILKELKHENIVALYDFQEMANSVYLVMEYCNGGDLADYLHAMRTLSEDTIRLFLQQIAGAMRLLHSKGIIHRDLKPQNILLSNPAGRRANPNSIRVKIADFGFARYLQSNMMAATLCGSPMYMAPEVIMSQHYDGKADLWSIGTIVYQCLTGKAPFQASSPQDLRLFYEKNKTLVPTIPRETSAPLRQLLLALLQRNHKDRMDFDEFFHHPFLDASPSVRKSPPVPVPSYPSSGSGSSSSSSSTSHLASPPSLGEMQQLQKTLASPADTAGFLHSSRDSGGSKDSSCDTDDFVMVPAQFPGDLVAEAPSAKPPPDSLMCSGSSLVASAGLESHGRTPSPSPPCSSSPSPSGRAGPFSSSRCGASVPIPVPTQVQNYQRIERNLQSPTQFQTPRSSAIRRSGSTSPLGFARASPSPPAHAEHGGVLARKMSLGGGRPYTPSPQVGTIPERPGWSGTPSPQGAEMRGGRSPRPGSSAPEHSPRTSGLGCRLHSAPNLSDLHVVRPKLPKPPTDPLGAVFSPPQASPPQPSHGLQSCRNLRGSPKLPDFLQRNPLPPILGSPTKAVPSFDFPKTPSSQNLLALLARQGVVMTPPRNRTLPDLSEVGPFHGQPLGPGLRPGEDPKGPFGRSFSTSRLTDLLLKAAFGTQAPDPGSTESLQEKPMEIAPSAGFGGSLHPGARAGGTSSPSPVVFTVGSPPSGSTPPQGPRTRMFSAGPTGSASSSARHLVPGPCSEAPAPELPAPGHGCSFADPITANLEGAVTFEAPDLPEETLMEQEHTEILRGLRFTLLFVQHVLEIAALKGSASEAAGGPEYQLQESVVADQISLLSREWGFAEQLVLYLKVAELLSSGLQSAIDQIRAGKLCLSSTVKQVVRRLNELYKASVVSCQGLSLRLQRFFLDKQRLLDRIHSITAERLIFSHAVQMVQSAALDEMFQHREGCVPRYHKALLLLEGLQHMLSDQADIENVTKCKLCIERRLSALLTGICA
Nature of the test: biochemical. The settings on record: read-out: % enzyme activity, 1 μM; Run 1, Run 2.

A further test deals with CDK16/cyclin Y (PCTAIRE) (Homo sapiens, UniProt Q00536). The settings on record: 1 μM; Run 1, Run 2.
Another test deals with CK1g2 (Homo sapiens, UniProt P78368). Put plainly: biochemical. The note with it: read-out: % enzyme activity, 1 μM; Run 1, Run 2.
The next test concerns the target T2, LATS1 (Homo sapiens, UniProt O95835).
T2 sequence (O95835 1-1130): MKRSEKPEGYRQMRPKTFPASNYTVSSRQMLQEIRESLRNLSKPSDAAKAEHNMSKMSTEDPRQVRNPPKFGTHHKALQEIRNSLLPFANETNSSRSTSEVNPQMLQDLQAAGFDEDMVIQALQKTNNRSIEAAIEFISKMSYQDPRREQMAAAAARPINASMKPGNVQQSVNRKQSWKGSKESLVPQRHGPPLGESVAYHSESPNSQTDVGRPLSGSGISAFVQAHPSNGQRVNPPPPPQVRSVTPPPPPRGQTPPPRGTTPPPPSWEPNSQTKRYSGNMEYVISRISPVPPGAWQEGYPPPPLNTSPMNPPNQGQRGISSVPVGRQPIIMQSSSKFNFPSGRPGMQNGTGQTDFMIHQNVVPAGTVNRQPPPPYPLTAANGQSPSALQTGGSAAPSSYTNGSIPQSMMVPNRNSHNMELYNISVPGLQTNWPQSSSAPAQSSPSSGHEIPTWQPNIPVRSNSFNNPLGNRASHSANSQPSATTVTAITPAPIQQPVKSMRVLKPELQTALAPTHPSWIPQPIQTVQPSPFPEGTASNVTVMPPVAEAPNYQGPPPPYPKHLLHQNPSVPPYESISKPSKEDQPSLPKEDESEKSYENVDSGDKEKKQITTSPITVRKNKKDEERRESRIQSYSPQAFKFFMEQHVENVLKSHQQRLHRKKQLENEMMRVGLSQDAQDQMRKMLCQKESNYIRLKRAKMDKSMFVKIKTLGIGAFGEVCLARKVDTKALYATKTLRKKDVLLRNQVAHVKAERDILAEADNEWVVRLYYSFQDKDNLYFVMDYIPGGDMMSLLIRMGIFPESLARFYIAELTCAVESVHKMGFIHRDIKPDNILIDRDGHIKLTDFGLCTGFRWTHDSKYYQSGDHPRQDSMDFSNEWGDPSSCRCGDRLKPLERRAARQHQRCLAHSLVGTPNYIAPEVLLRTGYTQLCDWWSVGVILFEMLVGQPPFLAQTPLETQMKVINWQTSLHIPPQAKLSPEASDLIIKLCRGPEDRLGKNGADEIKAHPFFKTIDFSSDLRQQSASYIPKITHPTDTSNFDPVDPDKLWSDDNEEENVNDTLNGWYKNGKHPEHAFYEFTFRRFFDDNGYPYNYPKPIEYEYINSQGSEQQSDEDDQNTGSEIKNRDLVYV
Put plainly: biochemical. The note with it: read-out: % enzyme activity, 1 μM; Run 1, Run 2.

The next test addresses T3, PKG2/PRKG2 (Homo sapiens, UniProt Q13237).
T3 sequence (Q13237 1-762): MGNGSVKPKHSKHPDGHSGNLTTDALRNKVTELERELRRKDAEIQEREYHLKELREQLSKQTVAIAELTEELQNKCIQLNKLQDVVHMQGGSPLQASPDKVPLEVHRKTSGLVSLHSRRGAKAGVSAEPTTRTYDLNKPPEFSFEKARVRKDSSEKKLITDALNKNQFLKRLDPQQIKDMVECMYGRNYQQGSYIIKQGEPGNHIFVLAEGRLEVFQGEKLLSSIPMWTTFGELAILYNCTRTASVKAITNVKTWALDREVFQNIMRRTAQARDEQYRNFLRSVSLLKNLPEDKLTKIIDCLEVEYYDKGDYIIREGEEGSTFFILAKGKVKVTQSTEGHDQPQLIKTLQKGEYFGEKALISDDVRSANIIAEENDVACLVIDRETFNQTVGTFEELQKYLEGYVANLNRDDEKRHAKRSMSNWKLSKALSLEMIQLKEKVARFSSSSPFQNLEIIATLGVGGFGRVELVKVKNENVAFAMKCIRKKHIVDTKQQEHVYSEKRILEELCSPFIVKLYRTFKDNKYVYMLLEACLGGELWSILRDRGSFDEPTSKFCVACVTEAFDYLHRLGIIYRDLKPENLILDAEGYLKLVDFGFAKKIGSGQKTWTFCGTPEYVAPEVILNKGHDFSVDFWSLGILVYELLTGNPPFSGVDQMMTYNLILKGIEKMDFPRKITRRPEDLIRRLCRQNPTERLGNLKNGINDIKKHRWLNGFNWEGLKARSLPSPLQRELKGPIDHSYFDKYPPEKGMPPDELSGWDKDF
Put plainly: biochemical. The settings on record: read-out: % enzyme activity, 1 μM; Run 1, Run 2.

Sequence of CK1g2 (P78368 whole entry): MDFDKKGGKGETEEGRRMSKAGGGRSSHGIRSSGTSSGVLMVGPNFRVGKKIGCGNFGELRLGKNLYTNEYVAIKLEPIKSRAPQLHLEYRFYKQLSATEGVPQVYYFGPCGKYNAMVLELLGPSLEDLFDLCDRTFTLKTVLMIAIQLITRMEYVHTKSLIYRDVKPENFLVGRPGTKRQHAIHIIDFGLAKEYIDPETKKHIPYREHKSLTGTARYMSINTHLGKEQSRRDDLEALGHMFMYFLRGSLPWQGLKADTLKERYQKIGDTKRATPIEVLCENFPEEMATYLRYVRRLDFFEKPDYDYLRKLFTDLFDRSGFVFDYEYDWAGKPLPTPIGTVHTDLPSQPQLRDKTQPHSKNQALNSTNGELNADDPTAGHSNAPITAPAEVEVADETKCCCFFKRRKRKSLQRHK
Sequence of CDK16/cyclin Y (PCTAIRE) (Q00536 whole entry): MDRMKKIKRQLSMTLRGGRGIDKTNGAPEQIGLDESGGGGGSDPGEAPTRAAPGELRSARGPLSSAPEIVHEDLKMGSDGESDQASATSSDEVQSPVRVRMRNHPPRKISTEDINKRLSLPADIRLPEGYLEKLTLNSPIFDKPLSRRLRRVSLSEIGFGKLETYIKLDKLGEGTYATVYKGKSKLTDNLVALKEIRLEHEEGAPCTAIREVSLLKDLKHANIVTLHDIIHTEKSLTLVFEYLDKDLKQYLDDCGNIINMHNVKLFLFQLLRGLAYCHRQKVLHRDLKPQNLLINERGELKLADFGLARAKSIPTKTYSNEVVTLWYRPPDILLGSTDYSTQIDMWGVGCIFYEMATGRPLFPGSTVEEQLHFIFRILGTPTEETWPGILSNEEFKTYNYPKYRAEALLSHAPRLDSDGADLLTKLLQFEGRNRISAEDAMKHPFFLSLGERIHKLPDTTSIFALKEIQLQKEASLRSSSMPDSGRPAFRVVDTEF
Sequence of CDK16/cyclin Y (PCTAIRE) (Q8ND76 whole entry partner): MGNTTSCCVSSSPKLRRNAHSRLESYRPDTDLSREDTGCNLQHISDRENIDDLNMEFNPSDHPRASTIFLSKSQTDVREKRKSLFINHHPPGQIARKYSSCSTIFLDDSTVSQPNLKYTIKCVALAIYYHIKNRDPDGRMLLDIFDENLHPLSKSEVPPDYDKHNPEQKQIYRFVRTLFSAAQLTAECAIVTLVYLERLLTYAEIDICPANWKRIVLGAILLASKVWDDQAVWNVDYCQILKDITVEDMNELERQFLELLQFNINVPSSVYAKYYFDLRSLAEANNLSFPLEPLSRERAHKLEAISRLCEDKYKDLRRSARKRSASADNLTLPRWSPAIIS

As for `COc1cc(-c2cncc(-c3ccc(N4C[C@@H](C)N(C)[C@@H](C)C4)cc3)c2C)cc(F)c1C(N)=O` [Compound 26c, 2-Fluoro-6-methoxy-4-(4-methyl-5-(4-((3R,5S)-3,4,5-trimethylpiperazin-1-yl)phenyl)pyridin-3-yl)benzamide], the remaining activity at 1 µM turned out to be 89.8% on ULK1, 87% on CK1g2, 102% on LATS1 and 98.5% on PKG2/PRKG2. For the same compound, the “% enzyme activity” value on CDK16/cyclin Y (PCTAIRE) is given as 92.26%.
For `COc1cc(-c2cncc(-c3ccc(N4CCN(C)CC4)cc3)c2C)cc(F)c1C(N)=O` [Compound 26a, 2-Fluoro-6-methoxy-4-(4-methyl-5-(4-(4-methylpiperazin-1-yl)phenyl)pyridin-3-yl)benzamide], in that order: 84.7%, 78%, 97.4%, 98.9% and 93.35%.
